The text below walks through data of patent US20090048269A1 (AstraZeneca AB, priority 2007, published 2009).

The target of this assay is T1, human ALK5 (Homo sapiens, UniProt P36897).
T1 sequence (P36897 162-503): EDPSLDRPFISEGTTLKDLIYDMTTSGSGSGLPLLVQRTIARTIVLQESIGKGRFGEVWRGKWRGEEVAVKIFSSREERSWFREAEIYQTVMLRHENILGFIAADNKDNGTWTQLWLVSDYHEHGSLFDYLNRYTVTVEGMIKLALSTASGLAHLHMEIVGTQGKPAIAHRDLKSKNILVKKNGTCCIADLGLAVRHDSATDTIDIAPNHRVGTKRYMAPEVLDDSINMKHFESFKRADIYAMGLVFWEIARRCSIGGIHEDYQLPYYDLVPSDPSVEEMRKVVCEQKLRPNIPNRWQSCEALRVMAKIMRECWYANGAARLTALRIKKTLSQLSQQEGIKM
The experiment in a line: ALK5 Enzyme Assay 2 (fluorescence polarisation probe displacement). It counts as binding. The arrangement: 6His tagged human ALK5 (residues162-503) was grown and purified from insect cells; 6His; made in house; host or cells: insect cells. Conditions: read-out: EAA2: activity (μM) using Enzyme Assay 2. How it is done: The ability of a compound to bind and inhibit ALK5 can be measured by its capacity to displace a probe molecule from recombinant ALK5 in an in vitro assay. Provided the probe molecule is derivatised with a fluorescent probe or is fluorescent itself, the binding affinity can be measured using Fluorescence Polarisation (FP). […] Assay measurements were performed in 50 mM HEPES pH7.4, 10 mM MgCl2, 1 mM DTT, 0.01% CHAPS in a final assay volume of 12 μl. Briefly 6 μl of ALK5 protein, final concentration of 3 μg/mL, was added to each well of a 384 well assay plate containing 12 nL of each concentration of test compound dissolved in DMSO. 6 μL of a solution containing an ALK5 FP probe ((2Z)-3-(6-{4-[2-({4-[(6-chloro[1,3]dioxolo[4,5-b]pyridin-7-yl)amino]-5-(1-methylethoxy)quinazolin-7-yl}oxy)ethyl]piperazin-1-yl}-6-oxohexyl)-2-[(2E,4E)-5-(3-ethyl-1,1-dimethyl-6,8-disulfo-1H-benzo[e]indolium-2-yl)penta-2,4-dien-1-ylidene]-1,1-dimethyl-6-sulfo-2,3-dihydro-1H-benzo[e]indole-8-sulfonate), final concentration 50 nM, and ATP, final concentration 1 μM.
With `Cc1cc(Oc2ccnc(Nc3ccc(C(=O)NCCCN)cc3)c2)c(-c2ccccn2)nc1C` [Example 199, N-(3-Aminopropyl)-4-{[4-(5,6-dimethyl-2-pyridin-2-ylpyridin-3-yl)oxypyridin-2-yl]amino}benzamide], the IC50 was 0.00145 µM.

In the case of `Cc1ccc(Oc2ccnc(Nc3cccc(C(=O)NCC(N)=O)c3)c2)c(C)n1` [Example 67, N-(2-Amino-2-oxoethyl)-3-{[4-(2,6-dimethylpyridin-3-yl)-oxypyridin-2-yl]amino}benzamide], the IC50 was 0.054 µM. The value for `Cc1cc(Oc2ccnc(Nc3cccc(-c4cnco4)c3)c2)c(-c2ccccn2)nc1C` [Example 77, 4-(5,6-Dimethyl-2-pyridin-2-ylpyridin-3-yl)oxy-N-[3-(1.3-oxazol-5-yl)phenyl]pyridin-2-amine] was 0.00862 µM; that for `Cc1ccc(Oc2ccnc(Nc3ccc(OCC(O)CNC(C)C)cc3)c2)c(C)n1` (centres unmarked) [Example 129, 1-(4-{[4-(2,6-Dimethylpyridin-3-yl)oxypyridin-2-yl]amino}-phenoxy)-3-(propan-2-ylamino)propan-2-ol] was 0.103 µM; that for `Cc1ccc(Oc2ccnc(Nc3ccc(S(=O)(=O)NC4CCC4)cc3)c2)c(C)n1` [Example 113, N-Cyclobutyl-4-{[4-(2,6-dimethylpyridin-3-yl)oxypyridin-2-yl]-amino}benzenesulfonamide] was 0.288 µM. The value for `Cc1cc(Oc2ccnc(Nc3cccc(OCCN4CCOCC4)c3)c2)c(-c2ccccn2)nc1C` [Example 79, 4-(5,6-Dimethyl-2-pyridin-2-ylpyridin-3-yl)oxy-N-[3-(2-morpholin-4-ylethoxy)phenyl]pyridin-2-amine] was 0.0396 µM. Under `Cc1ccc(Oc2ccnc(Nc3ccc(C(N)=O)cc3)c2)c(-c2ccccn2)n1` [Example 146, 4-{[4-(6-Methyl-2-pyridin-2-ylpyridin-3-yl)oxypyridin-2-yl]-amino}benzamide] stands 0.0152 µM. As to `CCCCCNC(=O)N1CCN(Cc2cccc(Nc3cc(Oc4ccc(C)nc4C)ccn3)c2)CC1` [Example 181, 4-[(3-{[4-(2,6-Dimethylpyridin-3-yl)oxypyridin-2-yl]amino}-phenyl)methyl]-N-pentylpiperazine-1-carboxamide], the IC50 came to 0.0159 µM.

For the compound `Cc1cc(Oc2ccnc(Nc3ccc(C(=O)NCCCNC(=O)OC(C)(C)C)cc3)c2)c(-c2ccccn2)nc1C` [Example 197, tert-Butyl N-{3-[(4-{[4-(5,6-dimethyl-2-pyridin-2-ylpyridin-3-yl)-oxypyridin-2-yl]amino}benzoyl)amino]propyl}carbamate], the IC50 was found to be 0.0061 µM. Under `Cc1ccc(Oc2ccnc(Nc3cccc(CN4CCN(C(=O)OC(C)(C)C)CC4)c3)c2)c(C)n1` [Example 207, tert-Butyl 4-[(3-{[4-(2,6-dimethylpyridin-3-yl)oxypyridin-2-yl]-amino}phenyl)methyl]piperazine-1-carboxylate] stands 0.0384 µM. Under `Cc1ccc(Oc2ccnc(Nc3ccc(C(=O)N(C)C)cc3)c2)c(C)n1` [Example 121, 4-{[4-(2,6-Dimethylpyridin-3-yl)oxypyridin-2-yl]amino}-N,N-dimethylbenzamide] stands 0.088 µM; under `Cc1ccc(Oc2ccnc(Nc3ccc(S(=O)(=O)NCCN4CCCCC4)cc3)c2)c(C)n1` [Example 134, 4-{[4-(2,6-Dimethylpyridin-3-yl)oxypyridin-2-yl]amino}-N-(2-piperidin-1-ylethyl)benzenesulfonamide], 0.199 µM; under `Cc1cc(Oc2ccnc(Nc3cccc(C(=O)N4CCCCCC4)c3)c2)c(-c2ccccn2)nc1C` [Example 102, Azepan-1-yl-(3-{[4-(5,6-dimethyl-2-pyridin-2-ylpyridin-3-yl)-oxypyridin-2-yl]amino}phenyl)methanone], 0.0113 µM. In the case of `COc1cc(Nc2cc(Oc3ccc(C)nc3N3CCCC3)ccn2)cc(OC)c1OC` [Example 164, 4-(6-Methyl-2-(pyrrolidin-1-yl)pyridin-3-yloxy)-N-(3,4,5-trimethoxyphenyl)pyridin-2-amine], the IC50 is 0.0275 µM.

In the case of `Cc1ccc(Oc2ccnc(Nc3cccc(CN4CCN(C(C)C(N)=O)CC4)c3)c2)c(C)n1` (centres unmarked) [Example 190, 2-14-[3-({4-[(2,6-dimethylpyridin-3-yl)oxylpyridin-2-yl}amino)-benzyl]piperazin-1-yl}propanamide], the IC50 stood at 0.0322 µM. Take `Cc1ccc(Oc2ccnc(Nc3cccc(CN4CCN(C(=O)C5CC5)CC4)c3)c2)c(C)n1` [Example 183, N-(3-{[4-(cyclopropylcarbonyl)piperazin-1-yl]methyl}phenyl)-4-[(2,6-dimethylpyridin-3-yl)oxy]pyridin-2-amine]: the IC50 came out at 0.0127 µM. The value for `COc1cc(Nc2cc(Oc3ccc(C)nc3-c3cncnc3)ccn2)cc(OC)c1OC` [Example 173, 4-(6-Methyl-2-pyrimidin-5-ylpyridin-3-yl)oxy-N-(3,4,5-trimethoxyphenyl)pyridin-2-amine] was 0.0966 µM; that for `COc1cc(Nc2cc(Oc3ccc(C)nc3C3CCCO3)ccn2)cc(OC)c1OC` (centres unmarked) [Example 167, 4-[6-Methyl-2-(oxolan-2-yl)pyridin-3-yl]oxy-N-(3,4,5-trimethoxy-phenyl)pyridin-2-amine] was 0.0568 µM. The value for `CC(=O)N(C)c1ccc(Nc2cc(Oc3cc(C)c(C)nc3-c3ccccn3)ccn2)cc1` [Example 83, N-(4-{[4-(5,6-Dimethyl-2-pyridin-2-ylpyridin-3-yl)oxypyridin-2-yl]-amino}phenyl)-N-methylacetamide] was 0.0259 µM; that for `COC(=O)c1cccc(Nc2cc(Oc3cc(C)c(C)nc3-c3ccccn3)ccn2)c1` [Example 202, Methyl 3-{[4-(5,6-dimethyl-2-pyridin-2-ylpyridin-3-yl)oxypyridin-2-yl]amino}benzoate] was 0.0279 µM; that for `Cc1ccc(Oc2ccnc(Nc3ccc(S(=O)(=O)NCCN4CCOCC4)cc3)c2)c(C)n1` [Example 131, 4-[4-(2,6-Dimethylpyridin-3-yloxy)pyridin-2-ylamino]-N-(2-morpholinoethyl)benzenesulfonamide] was 0.256 µM. The value for `Cc1ccc(Oc2ccnc(Nc3ccc(C(N)=O)cc3)c2)c(-c2ccccc2)n1` [Example 151, 4-{[4-(6-Methyl-2-phenylpyridin-3-yl)oxypyridin-2-yl]amino}-benzamide] was 0.0137 µM; that for `Cc1cc(Oc2ccnc(Nc3cccc(C(=O)N4CCCC(C)C4)c3)c2)c(-c2ccccn2)nc1C` (centres unmarked) [Example 101, (3-{[4-(5,6-Dimethyl-2-pyridin-2-ylpyridin-3-yl)oxypyridin-2-yl]-amino}phenyl)-(3-methylpiperidin-1-yl)methanone] was 0.0114 µM. `Cc1ccc(Oc2ccnc(Nc3ccccc3)c2)c(C(=O)NCCc2ccccc2)n1` [Example 95, 3-(2-Anilinopyridin-4-yl)oxy-6-methyl-N-phenethylpyridine-2-carboxamide]: the IC50 amounted to 0.0209 µM. Under `Cc1cc(Oc2ccnc(Nc3cccc(CN4CCN(C)CC4)c3)c2)c(-c2ccccn2)nc1C` [Example 78, 4-(5,6-Dimethyl-2-pyridin-2-ylpyridin-3-yl)oxy-N-{3-[(4-methyl-piperazin-1-yl)methyl]phenyl}pyridin-2-amine] stands 0.0384 µM. With `Cc1cc(Oc2ccnc(Nc3ccc(OCCCNC(=O)OC(C)(C)C)cc3)c2)c(-c2ccccn2)nc1C` [Example 196, tert-Butyl N-[3-(4-{[4-(5,6-dimethyl-2-pyridin-2-ylpyridin-3-yl)-oxypyridin-2-yl]amino}phenoxy)propyl]carbamate], the IC50 stood at 0.00903 µM.
